Results taken from patent US7211566B2 (Universite De Sherbrooke, priority 2003, dated 2007).

Experiments:
STZ diabetic mice [1] = experiment: Plantar stimulation test, type-1 diabetic hyperalgesia; format: in vivo
Method: (§1) Male CD-1 mice weighting between 25–30 g (Charles River Breeding Laboratory, St-Constant, QC, Canada) were used. The mice were housed four by cage with free access to food and water. They were maintained under conditions of standard lighting, (alternating 12-h light/dark cycle), temperature (22±0.5° C.) and humidity (60±10%) with food and water available at libitum. Animals were used only once in a given experiment. Experiments were conducted between 10:00 and 18:00 h. […]
(§2) Insulin-dependent diabetes mellitus (IDDM) was induced in mice using STZ. […] Blood glucose levels were determined with an automatic analyzer (Glucometer Elite XL, Bayer Incorporation, Toronto, Ontario, Canada) using glucose oxidase/potassium ferricyanide reagent strips. […]
In the plantar stimulation test, the method of Hargreaves et al. (Hargreaves et al., 1988, Pain, 32, 77–88) was used to access the hind-paw nociceptive withdrawal thresholds of a free moving mouse to thermal stimuli. […] Each latency value was determined from two applications of the radiant heat stimulus, separated by 1–2 min intervals, and the mean of the two measures is taken. […]
(§3) In all tests, pre-treatment latencies were determined three times with an interval of 24 h starting three days before the injection of STZ or saline and the mean was calculated in order to obtain stable pre-drug response latency. […]

STZ diabetic mice [2] = experiment: Hot plate test, type-1 diabetic hyperalgesia; format: in vivo; conditions: 400 μg/kg i.p.
Method: (§4) Male CD-1 mice weighting between 25–30 g (Charles River Breeding Laboratory, St-Constant, QC, Canada) were used. The mice were housed four by cage with free access to food and water. They were maintained under conditions of standard lighting, (alternating 12-h light/dark cycle), temperature (22±0.5° C.) and humidity (60±10%) with food and water available at libitum. Animals were used only once in a given experiment. Experiments were conducted between 10:00 and 18:00 h.
(§5) Streptozotocin (Pharmacia & Upjohn Incorporation, Mississauga, ON, Canada) was dissolved in saline at a pH of 4.5 and administered to mice i.p. The BKB1 agonist desArg^9BK and compound c were dissolved in saline and administered to mice i.p.
as §2, with “STZ. Male CD-1 mice were given a single high i.p. dose of STZ (200 mg/kg) (McEvoy et al., 1984, J Clin Invest 74, 715–722).” for “STZ.”
The hot plate test was adapted from the technique of Eddy and Leimbach (1953, J Pharmacol Exp Ther 107, 385–389). […] When the pain threshold is reached the animal starts to react by licking its hind paw or to jump, and the reaction time is recorded with a built-in timer, with a maximum cut-off time of 30 s to avoid tissue damage. […]
(§6) The effect of the selected drugs on nociception was determined by converting the hot plate, the plantar stimulation, the tail immersion or the tail flick responses from latencies into MPE (Maximum Percent Effect) according to the following equation (Bhargava and Zhao, 1996, Neuropeptides, 30, 219–223): […]
as §3

STZ diabetic mice [3] = experiment: Tail flick test, type-1 diabetic hyperalgesia; format: in vivo
Method: as §4, §5
as §2, with “STZ. Male CD-1 mice were given a single high i.p. dose of STZ (200 mg/kg) (McEvoy et al., 1984, J Clin Invest 74, 715–722).” for “STZ.”
The tail flick test of D'Amour and Smith (D'Amour and Smith, 1941, J Pharmacol Exp Ther 72, 74–79) modified for mice was used. […] The radiant light is focussed on a blackened spot in the mid region of the animal's tail (2–3 cm from the tip of the tail) and the latency between the application of the stimulation light and the flicking of the animal's tail is recorded. When the animal flicks its tail, its exposes a photocell in the apparatus immediately below the tail and the instrument is automatically stopped and the time is recorded. […]
as §6

STZ diabetic mice [4] = experiment: Tail immersion test, type-1 diabetic hyperalgesia; format: in vivo
Method: as §1, §2
The tail-immersion test was performed according to Coderre and Rollman (Coderre and Rollman, 1983, Life Sci 32, 2139–2146). […] The latency between submersion of the tail and its removal from the water by the animal was recorded, with a maximum cut-off time of 10 seconds to minimize tail skin tissue damage. […]
as §6

[5] = human plasma as a source of aminopeptidase M (AmM); conditions: up to 60 min
plasma = conditions: rat, 37° C., up to 4 hours
blood = conditions: rat, 37° C., up to 4 hours
[6] = system: angiotensin converting enzyme (ACE); experiment: Purified ACE from rabbit lungs (Sigma, St. Louis, Mo.) dissolved in PBS (50 mM, pH 7.5, containing 300 mM NaCl and 10 μM ZnCl2); conditions: 37° C., up to 60 min
serum = conditions: rat, 37° C., up to 4 hours
[7] = system: carboxypeptidases of the M type (CPM); conditions: cited from earlier work
[8] = system: carboxypeptidases of the N type (CPN); conditions: cited from earlier work
aminopeptidases = conditions: cited from earlier work
BKB1 receptor = biological target: T1, BKB1 receptor (Homo sapiens, UniProt P46663); conditions: Gobeil et al. 1996; cited from earlier work
T1 sequence (P46663 1-353): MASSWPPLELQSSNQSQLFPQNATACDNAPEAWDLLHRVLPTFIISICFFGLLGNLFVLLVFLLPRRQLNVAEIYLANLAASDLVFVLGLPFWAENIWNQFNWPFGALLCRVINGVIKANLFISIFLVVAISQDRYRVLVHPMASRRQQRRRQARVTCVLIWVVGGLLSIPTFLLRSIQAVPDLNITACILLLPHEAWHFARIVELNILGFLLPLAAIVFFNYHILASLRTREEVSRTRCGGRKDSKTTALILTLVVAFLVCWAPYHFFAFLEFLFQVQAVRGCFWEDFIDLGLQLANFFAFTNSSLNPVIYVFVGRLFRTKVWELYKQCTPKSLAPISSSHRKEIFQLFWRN

Substance: desArg^9BK
- MPE (STZ diabetic mice [1]; STZ diabetic mice, 400 μg/kg i.p., 20 min after injection): −21.03±0.75%
- change in nociceptive response (STZ diabetic mice [1]; healthy mice): did not induce significant changes
- potentiation of hyperalgesic response (STZ diabetic mice [2]; STZ diabetic mice): 98%
- change in nociceptive response (STZ diabetic mice [2]; control mice): did not induce significant changes
- potentiating effect on hyperalgesic activity (STZ diabetic mice [3]; STZ diabetic mice, maximal after 10 min): 48%
- change in tail flick test (STZ diabetic mice [3]; control mice, 400 μg/kg i.p.): did not induce significant changes
- MPE (STZ diabetic mice [4]; STZ diabetic mice, i.p., 20 min after administration): −19.23±0.60%
- change in tail immersion latencies (STZ diabetic mice [4]; control mice): did not show significant changes

Substance: Ac-Orn[Oic^2,(α-Me)Phe^5,D-βNal^7,Ile^8]desArg^9BK
- not cleaved [5]: Peptide metabolism 0 % (60 min)
- not cleaved (plasma): >90% parent remaining after 4 hours
- not cleaved (blood): >90% parent remaining after 4 hours
- not cleaved [6]: Peptide metabolism 0 % (60 min)
- not cleaved (serum): >90% parent remaining after 4 hours

Substance: Lys Arg Pro Pro Gly Phe Ser Pro Phe Arg
- cleaved bond [7]: Phe8-Arg9
- cleaved bond [8]: Phe8-Arg9
- fragment found (aminopeptidases): BK

Substance: Lys-desArg^9BK (KRPPGFSPF; Lys - des-Arg9 Bradykinin) [BKB1 receptor agonist]
- potency relative to desArg^9BK (BKB1 receptor): 100 fold
